2 compounds from patent publication US20100242139A1, “XENOHORMESIS BASED COMPOSITIONS AND METHODS” (President and Fellows of Harvard College, priority 2006, published 2010) can be followed below.

One test concerns the target SAPK2a(T106M)(h) (Homo sapiens, UniProt Q16539, T106M). The test can be described thus: kinase panel activity, SAPK2a(T106M)(h). It is filed as biochemical. The note with it: compound at 20 μM; vs reference with no compound.
For a further test, the target named is Fms(h) (Homo sapiens, UniProt P07333). The test can be described thus: kinase panel activity, Fms(h). The class given is biochemical. The following applies: compound at 20 μM; vs reference with no compound.
The next test concerns the target PKCγ(h) (Homo sapiens, UniProt P05129). Put plainly: kinase panel activity, PKCγ(h). The class given is biochemical. The following applies: compound at 20 μM; vs reference with no compound.
The next test deals with Abl(h) (Homo sapiens, UniProt P00519). The test can be described thus: kinase panel activity, Abl(h). The following applies: compound at 20 μM; vs reference with no compound. It is filed as biochemical.
Another test addresses LIMK1(h) (Homo sapiens, UniProt P53667). The test can be described thus: kinase panel activity, LIMK1(h). The class given is biochemical. The note with it: compound at 20 μM; vs reference with no compound.
For the next test, the target named is PKCζ(h) (Homo sapiens, UniProt Q05513). Put plainly: kinase panel activity, PKCζ(h). It is filed as biochemical. The note with it: compound at 20 μM; vs reference with no compound.
The target in the next test is Flt3(h) (Homo sapiens, UniProt P36888). The test can be described thus: kinase panel activity, Flt3(h). It is filed as biochemical. The following applies: compound at 20 μM; vs reference with no compound.
A further test has as its target PKCδ(h) (Homo sapiens, UniProt Q05655). The test can be described thus: kinase panel activity, PKCδ(h). It is filed as biochemical. The following applies: compound at 20 μM; vs reference with no compound.
The next test concerns the target PKCβI(h) (Homo sapiens, UniProt P05771). The test can be described thus: kinase panel activity, PKCβI(h). It is filed as biochemical. The following applies: compound at 20 μM; vs reference with no compound.
Another test has as its target PAK2(h) (Homo sapiens, UniProt Q13177). Put plainly: kinase panel activity, PAK2(h). It is filed as biochemical. The following applies: compound at 20 μM; vs reference with no compound.
The target in a further test is SIK(h) (Homo sapiens, UniProt P57059). The test can be described thus: kinase panel activity, SIK(h). The class given is biochemical. The following applies: compound at 20 μM; vs reference with no compound.
The next test has as its target Abl(T315I)(h) (Homo sapiens, UniProt P00519, T315I). Put plainly: kinase panel activity, Abl(T315I)(h). The note with it: compound at 20 μM; vs reference with no compound. The class given is biochemical.
The target of another test is JAK2(h) (Homo sapiens, UniProt O60674). Put plainly: kinase panel activity, JAK2(h). The class given is biochemical. The following applies: compound at 20 μM; vs reference with no compound.
The target in a further test is SGK(h) (Homo sapiens, UniProt O00141). The test can be described thus: kinase panel activity, SGK(h). It is filed as biochemical. The following applies: compound at 20 μM; vs reference with no compound.
Another test has as its target PAK3(h) (Homo sapiens, UniProt O75914). The test can be described thus: kinase panel activity, PAK3(h). The following applies: compound at 20 μM; vs reference with no compound. It is filed as biochemical.
The target of another test is PKCθ(h) (Homo sapiens, UniProt Q04759). Put plainly: kinase panel activity, PKCθ(h). It is filed as biochemical. The following applies: compound at 20 μM; vs reference with no compound.
The target of another test is PKD2(h) (Homo sapiens, UniProt Q9BZL6). Put plainly: kinase panel activity, PKD2(h). It is filed as biochemical. The following applies: compound at 20 μM; vs reference with no compound.
The subject of the next test is FL5.12 cells. Put plainly: growth of hematopoietic cell line FL5.12. The note with it: 0.1, 1, 10 and 100 μM for 24 hours; in the presence of IL-3; Coulter counter. It is filed as cell-based. The text has this:
Hematopoietic cell line FL5.12 cells were seed at equal density and grown in the presence of IL-3, a growth factor.

The subject of another test is IRS-1. Put plainly: IRS-1 expression and phosphorylation on a high calorie diet. It is filed as in vivo. An excerpt: In addition, IRS-1 is phosphorylated at serine 307 (referred to PIRS-1).

SIK(h), sequence (P57059 whole entry): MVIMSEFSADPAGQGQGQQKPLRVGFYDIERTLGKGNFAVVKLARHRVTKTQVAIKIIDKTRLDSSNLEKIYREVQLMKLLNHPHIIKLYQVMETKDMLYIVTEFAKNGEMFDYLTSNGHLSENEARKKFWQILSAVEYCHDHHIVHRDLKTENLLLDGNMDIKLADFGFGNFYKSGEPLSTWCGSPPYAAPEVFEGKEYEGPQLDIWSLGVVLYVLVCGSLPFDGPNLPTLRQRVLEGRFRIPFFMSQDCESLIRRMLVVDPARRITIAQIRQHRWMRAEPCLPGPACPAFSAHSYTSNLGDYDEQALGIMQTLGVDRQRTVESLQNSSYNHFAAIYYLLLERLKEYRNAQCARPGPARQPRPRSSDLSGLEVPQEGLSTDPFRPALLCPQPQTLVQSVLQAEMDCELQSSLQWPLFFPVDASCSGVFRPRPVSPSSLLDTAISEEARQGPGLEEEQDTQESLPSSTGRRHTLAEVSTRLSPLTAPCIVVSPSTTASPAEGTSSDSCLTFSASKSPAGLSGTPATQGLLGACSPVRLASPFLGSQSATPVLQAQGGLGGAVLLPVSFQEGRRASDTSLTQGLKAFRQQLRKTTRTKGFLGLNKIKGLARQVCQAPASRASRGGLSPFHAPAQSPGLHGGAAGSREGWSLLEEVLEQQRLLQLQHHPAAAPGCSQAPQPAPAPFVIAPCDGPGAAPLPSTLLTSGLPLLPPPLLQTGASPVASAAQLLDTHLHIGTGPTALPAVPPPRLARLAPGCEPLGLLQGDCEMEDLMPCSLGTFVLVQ
SAPK2a(T106M)(h), sequence (Q16539 whole entry T106M): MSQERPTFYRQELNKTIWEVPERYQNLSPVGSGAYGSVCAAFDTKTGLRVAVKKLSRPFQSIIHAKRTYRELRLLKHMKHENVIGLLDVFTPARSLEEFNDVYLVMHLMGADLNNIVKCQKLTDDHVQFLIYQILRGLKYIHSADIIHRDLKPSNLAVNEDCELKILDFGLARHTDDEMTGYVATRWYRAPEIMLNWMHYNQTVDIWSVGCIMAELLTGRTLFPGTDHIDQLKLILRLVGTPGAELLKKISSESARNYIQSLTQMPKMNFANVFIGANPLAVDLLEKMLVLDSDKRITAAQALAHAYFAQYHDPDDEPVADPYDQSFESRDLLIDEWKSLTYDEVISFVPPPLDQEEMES
Fms(h), sequence (P07333 20-972): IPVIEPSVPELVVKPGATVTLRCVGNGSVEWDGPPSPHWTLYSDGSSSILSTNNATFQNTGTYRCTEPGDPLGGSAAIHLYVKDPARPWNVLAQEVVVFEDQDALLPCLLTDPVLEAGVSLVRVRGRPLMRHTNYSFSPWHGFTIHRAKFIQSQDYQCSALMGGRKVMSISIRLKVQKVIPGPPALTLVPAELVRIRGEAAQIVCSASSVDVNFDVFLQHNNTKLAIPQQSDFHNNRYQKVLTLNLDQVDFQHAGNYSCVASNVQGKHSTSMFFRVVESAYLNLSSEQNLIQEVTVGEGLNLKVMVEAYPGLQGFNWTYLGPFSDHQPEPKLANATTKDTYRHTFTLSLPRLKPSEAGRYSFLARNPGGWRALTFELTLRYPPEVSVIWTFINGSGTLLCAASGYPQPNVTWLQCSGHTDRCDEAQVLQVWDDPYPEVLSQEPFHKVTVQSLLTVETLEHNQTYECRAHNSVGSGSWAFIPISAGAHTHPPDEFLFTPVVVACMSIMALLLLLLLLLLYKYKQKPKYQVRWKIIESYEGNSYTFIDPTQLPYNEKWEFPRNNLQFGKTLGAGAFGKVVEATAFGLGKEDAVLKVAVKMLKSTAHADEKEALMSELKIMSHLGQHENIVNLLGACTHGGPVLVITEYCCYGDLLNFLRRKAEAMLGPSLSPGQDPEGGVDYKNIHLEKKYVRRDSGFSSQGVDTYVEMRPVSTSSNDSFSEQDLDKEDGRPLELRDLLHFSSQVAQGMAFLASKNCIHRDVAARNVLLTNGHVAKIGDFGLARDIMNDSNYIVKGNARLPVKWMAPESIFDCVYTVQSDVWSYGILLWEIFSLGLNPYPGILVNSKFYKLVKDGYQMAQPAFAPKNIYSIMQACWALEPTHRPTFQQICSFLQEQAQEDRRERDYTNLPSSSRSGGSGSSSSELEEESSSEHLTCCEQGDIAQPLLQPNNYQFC
LIMK1(h), sequence (P53667 whole entry): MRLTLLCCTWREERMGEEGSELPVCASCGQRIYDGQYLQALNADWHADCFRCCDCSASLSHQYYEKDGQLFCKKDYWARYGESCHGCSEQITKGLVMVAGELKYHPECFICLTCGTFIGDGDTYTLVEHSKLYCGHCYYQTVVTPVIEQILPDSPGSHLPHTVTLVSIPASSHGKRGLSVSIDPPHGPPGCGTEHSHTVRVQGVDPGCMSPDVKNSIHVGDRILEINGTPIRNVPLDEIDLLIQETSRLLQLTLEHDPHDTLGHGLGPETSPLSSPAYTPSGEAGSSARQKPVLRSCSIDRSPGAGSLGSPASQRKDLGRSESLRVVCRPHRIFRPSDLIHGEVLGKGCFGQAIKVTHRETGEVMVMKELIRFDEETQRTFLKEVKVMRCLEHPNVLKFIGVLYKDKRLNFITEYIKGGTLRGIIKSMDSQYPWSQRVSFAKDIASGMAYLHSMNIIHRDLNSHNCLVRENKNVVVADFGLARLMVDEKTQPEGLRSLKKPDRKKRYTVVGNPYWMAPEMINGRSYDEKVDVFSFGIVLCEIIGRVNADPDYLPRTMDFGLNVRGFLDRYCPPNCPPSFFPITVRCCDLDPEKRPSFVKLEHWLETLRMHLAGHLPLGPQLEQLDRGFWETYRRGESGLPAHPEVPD
SGK(h), sequence (O00141 whole entry): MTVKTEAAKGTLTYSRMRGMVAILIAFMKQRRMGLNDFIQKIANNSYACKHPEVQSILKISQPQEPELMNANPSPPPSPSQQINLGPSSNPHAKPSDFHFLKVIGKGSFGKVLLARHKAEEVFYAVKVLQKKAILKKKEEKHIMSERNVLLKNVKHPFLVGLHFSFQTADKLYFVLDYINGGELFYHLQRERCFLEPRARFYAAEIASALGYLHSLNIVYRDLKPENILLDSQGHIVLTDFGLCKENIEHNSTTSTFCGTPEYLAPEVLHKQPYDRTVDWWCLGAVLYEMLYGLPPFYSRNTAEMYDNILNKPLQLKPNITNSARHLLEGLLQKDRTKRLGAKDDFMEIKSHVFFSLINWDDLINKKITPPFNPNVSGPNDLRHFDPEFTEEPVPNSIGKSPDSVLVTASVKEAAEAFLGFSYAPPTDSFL
PKCθ(h), sequence (Q04759 whole entry): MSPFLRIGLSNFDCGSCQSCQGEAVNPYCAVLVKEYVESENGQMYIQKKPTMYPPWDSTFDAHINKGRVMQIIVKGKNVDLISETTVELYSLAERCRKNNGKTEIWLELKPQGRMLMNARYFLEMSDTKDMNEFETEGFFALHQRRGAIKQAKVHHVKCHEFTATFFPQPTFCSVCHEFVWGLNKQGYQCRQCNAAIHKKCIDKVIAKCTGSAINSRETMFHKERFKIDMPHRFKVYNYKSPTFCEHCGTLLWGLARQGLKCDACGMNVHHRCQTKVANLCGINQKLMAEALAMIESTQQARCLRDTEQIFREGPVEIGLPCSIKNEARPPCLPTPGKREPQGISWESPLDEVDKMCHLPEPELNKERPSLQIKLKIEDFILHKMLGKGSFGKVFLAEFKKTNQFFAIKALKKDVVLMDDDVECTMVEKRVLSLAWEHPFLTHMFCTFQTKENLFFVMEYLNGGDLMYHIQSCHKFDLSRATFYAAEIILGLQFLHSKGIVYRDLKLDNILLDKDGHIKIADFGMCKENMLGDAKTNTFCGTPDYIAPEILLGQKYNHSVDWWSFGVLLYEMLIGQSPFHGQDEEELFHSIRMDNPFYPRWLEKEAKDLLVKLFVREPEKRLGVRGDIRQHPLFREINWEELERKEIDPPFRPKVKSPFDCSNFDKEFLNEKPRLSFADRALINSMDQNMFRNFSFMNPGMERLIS
PKD2(h), sequence (Q9BZL6 whole entry): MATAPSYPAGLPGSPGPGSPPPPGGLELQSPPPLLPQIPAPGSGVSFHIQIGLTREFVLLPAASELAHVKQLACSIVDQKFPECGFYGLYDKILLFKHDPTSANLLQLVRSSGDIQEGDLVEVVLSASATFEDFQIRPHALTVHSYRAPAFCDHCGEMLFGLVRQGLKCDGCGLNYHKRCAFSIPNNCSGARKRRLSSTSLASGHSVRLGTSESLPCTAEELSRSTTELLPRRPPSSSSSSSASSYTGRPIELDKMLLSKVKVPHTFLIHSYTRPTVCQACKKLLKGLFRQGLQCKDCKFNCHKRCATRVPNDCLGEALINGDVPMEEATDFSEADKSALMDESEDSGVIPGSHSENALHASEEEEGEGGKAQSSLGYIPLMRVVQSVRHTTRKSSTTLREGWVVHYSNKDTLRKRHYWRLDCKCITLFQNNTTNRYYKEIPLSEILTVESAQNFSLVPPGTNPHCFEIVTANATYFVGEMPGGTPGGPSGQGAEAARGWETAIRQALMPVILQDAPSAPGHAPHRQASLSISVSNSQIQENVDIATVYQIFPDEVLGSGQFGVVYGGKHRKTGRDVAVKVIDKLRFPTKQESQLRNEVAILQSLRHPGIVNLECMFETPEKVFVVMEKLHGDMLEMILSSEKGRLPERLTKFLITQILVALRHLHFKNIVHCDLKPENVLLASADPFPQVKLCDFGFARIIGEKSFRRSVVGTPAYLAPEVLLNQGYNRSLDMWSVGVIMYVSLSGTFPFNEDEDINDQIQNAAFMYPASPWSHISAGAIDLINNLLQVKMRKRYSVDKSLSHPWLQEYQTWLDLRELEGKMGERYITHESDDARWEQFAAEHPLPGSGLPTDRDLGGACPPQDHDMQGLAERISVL

As for `O=C(O)[C@H]1O[C@@H](Oc2ccc(/C=C/c3cc(O)cc(O)c3)cc2)[C@H](O)[C@@H](O)[C@@H]1O` [Res 4′-Gluc, resveratrol-4-glucuronide], the “percent activity of SAPK2a(T106M)(h)” value on SAPK2a(T106M)(h) worked out at 109%. In addition, the “percent activity of Fms(h)” value at Fms(h) is 94%. The “percent activity of PKCγ(h)” value on PKCγ(h) is 77%. For the same compound, on Abl(h), the “percent activity of Abl(h)” value was 97%. For the same compound, the “percent activity of LIMK1(h)” value at LIMK1(h) is listed as 91%. For the same compound, the “percent activity of PKCζ(h)” value on PKCζ(h) was 104%. Moreover, the “percent activity of Flt3(h)” value on Flt3(h) amounted to 48%. Besides, the “percent activity of PKCδ(h)” value on PKCδ(h) was 110%. Moreover, the “percent activity of PKCβI(h)” value at PKCβI(h) is on record as 119%. On PAK2(h), the “percent activity of PAK2(h)” value was determined as 105%. In addition, the “percent activity of SIK(h)” value at SIK(h) is on record as 74%. In addition, the “percent activity of Abl(T315I)(h)” value at Abl(T315I)(h) was 93%. In addition, the “percent activity of JAK2(h)” value on JAK2(h) came to 95%. For the same compound, at SGK(h), the “percent activity of SGK(h)” value was determined as 48%. The “percent activity of PAK3(h)” value on PAK3(h) is on record as 75%. For the same compound, the “percent activity of PKCθ(h)” value on PKCθ(h) stood at 103%. Moreover, the “percent activity of PKD2(h)” value at PKD2(h) is recorded as 113%.

Turning to `Oc1ccc(C=Cc2cc(O)cc(O)c2)cc1` [resveratrol, 3,5,4′-trihydroxystilbene], at SAPK2a(T106M)(h), the “percent activity of SAPK2a(T106M)(h)” value came out at 102%. For the same compound, at Fms(h), the “percent activity of Fms(h)” value worked out at 61%. Further, the “percent activity of LIMK1(h)” value at LIMK1(h) stood at 84%. In addition, the “percent activity of SIK(h)” value on SIK(h) is given as 76%. In addition, in the test with FL5.12 cells, the “inhibition of FL5.12 cell growth” value is on record as “dose dependent inhibition”. Moreover, the “percent activity of SGK(h)” value on SGK(h) amounted to 86%. The “expression level of IRS-1” value in the test on IRS-1 (approximately 22 mg/kg resveratrol added to diet) is reported as “significantly reduced”. Also, the “proportion of phosphorylated IRS-1 (PIRS-1, serine 307)” value with IRS-1 (resveratrol treatment) is recorded as “increases”.
